{
  "source": "paper PMC9227536",
  "about": "“Prediction of Pharmacokinetics of IDP-73152 in Humans Using Physiologically-Based Pharmacokinetics” (Pharmaceutics, 2022)",
  "key": {"[1]": {"experiment": "Metabolic stability in liver microsomes, human", "assay_type": "in vitro ADME", "method": "In this study, the metabolic stability of IDP-73152 in microsomes from mice, rats, dogs, and humans, as well as rat hepatocytes, was determined. For a microsomal incubation study, the incubation mixtures, containing mouse, rat, dog, or human liver microsomes at a protein concentration of 0.5 mg/mL, 3.3 mM MgCl2, and 1.3 mM NADPH, in a 100 mM potassium phosphate buffer (pH 7.4), were preincubated for 3 min at 37 °C. In parallel, a control incubation mixture (i.e., identical composition to that of the incubation mixture without NADPH) was also prepared for comparison. The reaction was initiated by the addition of a 10 × solution of IDP-73152 (final concentration in mixtures of 1 μM) to the incubation mixtures or the control incubation mixtures. The mixtures were incubated in a shaking water bath (37 °C, 90 rpm). Aliquots (30 μL) were collected at 0, 15, 30, and 45 min from the mixture and the reaction was terminated by the addition of a 4-fold volume of ice-cold acetonitrile to the sample. The mixture was then vortexed for 5 min and centrifuged for 10 min at 10,000× g. The supernatant was collected and stored at -80 °C until the analysis. For the hepatocyte incubation study, rat hepatocytes were freshly prepared using the two-step collagenase perfusion method with slight modifications. After the isolation, cell viability during the preparation process was first determined by a trypan blue exclusion assay prior to the stability study. The preparation was considered adequate for subsequent studies if the viability was greater than 80%. When appropriate, the hepatocytes were resuspended in Williams' media E containing 10% fetal bovine serum, 1% penicillin-streptomycin, and 0.01% insulin-transferrin-selenium (i.e., 10 mg/mL insulin, 5.5 mg/mL transferrin, and 5 mg/mL selenium) at pH 7.4. The reaction was carried out with the hepatocyte suspension prepared at 1 × 10^6 cells/mL (0.5 mL) and initiated by the addition of equal volume of IDP-73152 solution (i.e., final concentration of the compound at 1 μM in 0.5 × 10^6 cells/mL of hepatocytes) to the hepatocyte suspension. […] Assuming first-order disappearance kinetics, the slope k of the logarithmically transformed IDP-73152 concentration in the sample versus time plot was determined by the linear regression analysis of the data. The total intrinsic clearance (CLint,mic, μL/min/mg protein for microsomal incubation study and CLint,hep, μL/min/million cells for hepatocytes incubation study) was then calculated using the following equations:(4) CLint, mic=k×Volume of incubation medium (μL)/Protein in incubation medium (mg) (5) CLint,hep=k×Volume of incubation (μL)/Number of cells in incubation (×10^6) The unbound intrinsic clearance, with respect to the whole liver ([…]), was then estimated for the two cases. […]"}, "[2]": {"experiment": "PK study in mice (intravenous and oral)", "assay_type": "in vivo, male ICR mice", "method": "The in vivo experimental protocol was approved by the Institutional Animal Care and Use Committee of Research Laboratory at Ildong pharmaceutical Co., Ltd. (Ref. No.: IDL-PDF-001 and 09005-11004). Animals were acclimatized to the laboratory conditions for at least 1 week before the experiments and were kept in the standardized conditions (20–25 °C, 55 ± 5% humidity, and a 12 h light/dark cycle). The animals fasted overnight prior to drug administration, and food was resupplied 4 h post-dose. In this study, a single dose of IDP-73152 at 10 mg/kg (i.e., the injection volume of 5 mL/kg, IDP-73152 dissolved in saline) was intravenously administered to male ICR mice (body weight 18.2–21.4 g, Orient Bio Inc., Seongnam, Korea) via the tail vein. […] Blood samples (100 μL) were collected from the retroorbital plexus at 0.167, 0.333, 0.5, 1, 2, 4, or 8 h after the administration. Plasma was separated/collected from the blood samples by centrifugation for 5 min at 10,000× g/4 °C and stored at −80 °C until analysis. When necessary for a model independent PK analysis, a standard moment analysis was carried out with WinNonlin software using either representative (for the study with mice) or individual (for the study with rats, dogs, and humans) concentration–time profile(s). For the calculation of PBPK models, Berkeley Madonna 8.3.18 (Albany, CA, USA) was used with the fourth-order Runge–Kutta method for numerical integration."}, "[3]": {"conditions": "male, ICR, mouse, plasma, oral 20 mg/kg"}},
  "note": "Read-outs that look alike come from different tables or passages of the source.",
  "data": [
    {"smiles": "CC(C)(C)[C@H](NC(=O)[C@H](CC1CCCC1)CN(O)C=O)C(=O)N1CCC(NCc2cc(F)c(F)cc2F)CC1", "note": "[IDP-73152]", "values": [
      {"measurement": "CLhep predicted at 1 μM", "setting": "[1]; human, liver microsomes, pH 7.4, humans, from microsomal stability data, well-stirred liver model, read-out: CLp expected in humans (converted)", "value": "~3.17", "unit": "mL/min/kg"},
      {"measurement": "microsomal CLint at 1 μM", "setting": "[1]; human, microsomes, pH 7.4", "value": "31.8 ± 2.2", "unit": "µL/min/mg"},
      {"measurement": "hepatic ER (extraction ratio)", "setting": "[1]; humans, from microsomal clearance, well-stirred model", "value": "0.159 ± 0.009"},
      {"measurement": "CLu,int,H", "setting": "[1]; humans, scaled up to the whole liver from microsomes", "value": "206 ± 14", "unit": "L/h"},
      {"measurement": "Vd", "setting": "[2]; male, ICR, mouse, plasma, intravenous 10 mg/kg, moment analysis, read-out: Vss", "value": 1.43, "unit": "L/kg"},
      {"measurement": "half-life", "setting": "[2]; male, ICR, mouse, plasma, intravenous 10 mg/kg, read-out: t1/2 (converted)", "value": 43.9, "unit": "min"},
      {"measurement": "clearance", "setting": "[2]; male, ICR, mouse, plasma, intravenous 10 mg/kg, representative concentration–time profile, read-out: CLp (converted)", "value": 25.3, "unit": "mL/min/kg"},
      {"measurement": "AUC(0-inf)", "setting": "[2]; male, ICR, mouse, plasma, iv, 10 mg/kg, intravenous 10 mg/kg", "value": 6590, "unit": "ng·h/mL"},
      {"measurement": "Cmax", "setting": "[2]; [3]", "value": 3100, "unit": "ng/mL"},
      {"measurement": "Tmax", "setting": "[2]; [3]", "value": 20, "unit": "min"},
      {"measurement": "bioavailability", "setting": "[2]; male, ICR, mouse, plasma, oral 20 mg/kg vs intravenous 10 mg/kg, read-out: F (bioavailability)", "value": 78.1, "unit": "%"},
      {"measurement": "half-life", "setting": "[2]; male, ICR, mouse, plasma, oral 20 mg/kg, read-out: t1/2 (terminal phase half-life) (converted)", "value": 172, "unit": "min"},
      {"measurement": "AUC(0-inf)", "setting": "[2]; male, ICR, mouse, plasma, po, 20 mg/kg, oral 20 mg/kg", "value": 10900, "unit": "ng·h/mL"},
      {"measurement": "AUCinf", "setting": "[2]; oral 20 mg/kg, 20 mg/kg", "value": 10300, "unit": "ng·h/mL"}
    ]}
  ]
}
